Experimental data published in patent US4268678A, “4-(Arylaliphatic)isoxazoles” (Sterling Drug Inc., priority 1979, dated 1981).
≈ marks a conversion by molar mass, not a printed value.

These compounds were tested on herpes simplex virus type 2 (assay: in vitro antiviral testing against herpes simplex virus type 2 (MIC by standard serial dilution)). Conditions: Human alphaherpesvirus 2, herpes simplex virus type 2 (herpes 2), read-out: minimal inhibitory concentration (MIC).
Format: cell-based
Description: They are useful in combatting viruses present on inanimate surfaces as well as viral infections in animal organisms. […] The MIC values were determined by standard serial dilution procedures.
For `CCc1noc(CC)c1Cc1ccc(OC)cc1` [Example 3, 3,5-Diethyl-4-[(4-methoxyphenyl)methyl]isoxazole], the MIC was 25 µg/mL (≈ 102 µM).
`CCc1noc(CC)c1Cc1ccc(C)cc1` [Example 2, 3,5-Diethyl-4-[(4-methylphenyl)methyl]isoxazole] gave an MIC of 1.5 µg/mL (≈ 6.54 µM).
For `CCc1noc(CC)c1Cc1ccc(OC)cc1Cl` [Example 4, 4-[(2-Chloro-4-methoxyphenyl)methyl]-3,5-diethylisoxazole], the MIC was 12 µg/mL (≈ 42.9 µM).
In the case of `CCc1noc(CC)c1CCCCCCCOc1ccc(OC)cc1Cl` [Example 8, 4-[7-(2-Chloro-4-methoxyphenoxy)heptyl]-3,5-diethylisoxazole], the MIC was > 25 µg/mL.
In the case of `CCc1noc(CC)c1CCCCOc1ccc(OC)cc1Cl` [Example 7, 4-[4-(2-Chloro-4-methoxyphenoxy)butyl]-3,5-diethylisoxazole], the MIC was 6 µg/mL (≈ 17.8 µM).
Compound `CCc1noc(CC)c1CCCCCCOc1ccc(OC)cc1[N+](=O)[O-]` [Example 5, 3,5-Diethyl-4-[6-(4-methoxy-2-nitrophenoxy)hexyl]isoxazole] has an MIC of 3 µg/mL (≈ 7.97 µM).
`CCc1noc(CC)c1CCCCCCOc1ccc(Br)cc1` [Example 6, 4-[6-(4-Bromophenoxy)hexyl]-3,5-diethylisoxazole] was tested, and the MIC was 12 µg/mL (≈ 31.6 µM).
Work on `CCc1noc(CC)c1CCCCCCOc1ccc(OC)cc1Cl` [Example 1, 4-[6-(2-Chloro-4-methoxyphenoxy)hexyl]-3,5-diethylisoxazole] yielded an MIC of 6 µg/mL (≈ 16.4 µM).
